Numbers after ± are expanded uncertainties.
Assay: refractive index (Na D-line) (dimensionless); xn = mol fraction of the nth substance listed
Conditions: 298.15 K; 100 kPa; Liquid; Standard Abbe refractometry; x1 = 1
For CCOC(=O)OCC [diethyl carbonate] + N#Cc1ccccc1, the refractive index was 1.3825 ± 0.0016. Molecule CCOC(=O)OCC [diethyl carbonate] + Nc1ccccc1 has a refractive index of 1.3825 ± 0.0016. In the case of CCOC(=O)OCC [diethyl carbonate] + O=Cc1ccccc1, the refractive index is reported as 1.3825 ± 0.0016.

Same assay, conditions: 303.15 K; 100 kPa; Liquid; Standard Abbe refractometry; x1 = 1
Molecule CCOC(=O)OCC [diethyl carbonate] + N#Cc1ccccc1 has a refractive index of 1.3802 ± 0.0016. Work on CCOC(=O)OCC [diethyl carbonate] + Nc1ccccc1 yielded a refractive index of 1.3802 ± 0.0016. Molecule CCOC(=O)OCC [diethyl carbonate] + O=Cc1ccccc1 has a refractive index of 1.3802 ± 0.0016.

Same assay, conditions: 308.15 K; 100 kPa; Liquid; Standard Abbe refractometry; x1 = 1
CCOC(=O)OCC [diethyl carbonate] + N#Cc1ccccc1 showed a refractive index of 1.3779 ± 0.0016. CCOC(=O)OCC [diethyl carbonate] + Nc1ccccc1 showed a refractive index of 1.3779 ± 0.0016. CCOC(=O)OCC [diethyl carbonate] + O=Cc1ccccc1 showed a refractive index of 1.3779 ± 0.0016.

Same assay, conditions: 313.15 K; 100 kPa; Liquid; Standard Abbe refractometry; x1 = 1
With CCOC(=O)OCC [diethyl carbonate] + N#Cc1ccccc1 the refractive index was 1.3756 ± 0.0016. Work on CCOC(=O)OCC [diethyl carbonate] + Nc1ccccc1 yielded a refractive index of 1.3756 ± 0.0016. Molecule CCOC(=O)OCC [diethyl carbonate] + O=Cc1ccccc1 has a refractive index of 1.3756 ± 0.0016.

Same assay, conditions: 318.15 K; 100 kPa; Liquid; Standard Abbe refractometry; x1 = 1
CCOC(=O)OCC [diethyl carbonate] + N#Cc1ccccc1 showed a refractive index of 1.3733 ± 0.0016. For CCOC(=O)OCC [diethyl carbonate] + Nc1ccccc1, the refractive index was 1.3733 ± 0.0016. CCOC(=O)OCC [diethyl carbonate] + O=Cc1ccccc1 gave a refractive index of 1.3733 ± 0.0016.

Same assay, conditions: 323.15 K; 100 kPa; Liquid; Standard Abbe refractometry; x1 = 1
With CCOC(=O)OCC [diethyl carbonate] + N#Cc1ccccc1 the refractive index was 1.371 ± 0.0016. In the case of CCOC(=O)OCC [diethyl carbonate] + Nc1ccccc1, the refractive index is reported as 1.371 ± 0.0016. CCOC(=O)OCC [diethyl carbonate] + O=Cc1ccccc1 gave a refractive index of 1.371 ± 0.0016.

Assay: not given
Conditions: 298.15 K; 100 kPa; Liquid; Frequency=3 MHz; Sing-around technique in a fixed-path interferometer
With Nc1ccccc1 [aniline] the speed of sound was 1636.8 ± 1.5 m/s. With O=Cc1ccccc1 [benzaldehyde] the speed of sound was 1457.3 ± 1.6 m/s. In the case of N#Cc1ccccc1 [benzonitrile], the speed of sound is reported as 1415.6 ± 1.5 m/s. For CCOC(=O)OCC [diethyl carbonate], the speed of sound was 1177.5 ± 1.6 m/s.

Same assay, conditions: 298.15 K; 100 kPa; Liquid; Vibrating tube method
Nc1ccccc1 [aniline] gave a mass density of 1017.1 ± 1 kg/m3. O=Cc1ccccc1 [benzaldehyde] showed a mass density of 1041 ± 1 kg/m3. In the case of N#Cc1ccccc1 [benzonitrile], the mass density is reported as 1000.6 ± 1 kg/m3. Molecule CCOC(=O)OCC [diethyl carbonate] has a mass density of 969.1 ± 1 kg/m3.

Same assay, conditions: 303.15 K; 100 kPa; Liquid; Frequency=3 MHz; Sing-around technique in a fixed-path interferometer
Molecule Nc1ccccc1 [aniline] has a speed of sound of 1617.5 ± 1.5 m/s. O=Cc1ccccc1 [benzaldehyde] gave a speed of sound of 1438.9 ± 1.6 m/s. In the case of N#Cc1ccccc1 [benzonitrile], the speed of sound is reported as 1398.1 ± 1.5 m/s. In the case of CCOC(=O)OCC [diethyl carbonate], the speed of sound is reported as 1156.9 ± 1.6 m/s.

Same assay, conditions: 303.15 K; 100 kPa; Liquid; Vibrating tube method
In the case of Nc1ccccc1 [aniline], the mass density is reported as 1012.7 ± 1 kg/m3. In the case of O=Cc1ccccc1 [benzaldehyde], the mass density is reported as 1036.5 ± 1 kg/m3. N#Cc1ccccc1 [benzonitrile] showed a mass density of 995.9 ± 1 kg/m3. Work on CCOC(=O)OCC [diethyl carbonate] yielded a mass density of 963.5 ± 1 kg/m3.

Same assay, conditions: 308.15 K; 100 kPa; Liquid; Frequency=3 MHz; Sing-around technique in a fixed-path interferometer
Nc1ccccc1 [aniline] showed a speed of sound of 1598.3 ± 1.5 m/s. For O=Cc1ccccc1 [benzaldehyde], the speed of sound was 1420.6 ± 1.6 m/s. With N#Cc1ccccc1 [benzonitrile] the speed of sound was 1380.8 ± 1.5 m/s. CCOC(=O)OCC [diethyl carbonate] gave a speed of sound of 1136.6 ± 1.5 m/s.

Same assay, conditions: 308.15 K; 100 kPa; Liquid; Vibrating tube method
Molecule Nc1ccccc1 [aniline] has a mass density of 1008.4 ± 1 kg/m3. Molecule O=Cc1ccccc1 [benzaldehyde] has a mass density of 1032 ± 1 kg/m3. N#Cc1ccccc1 [benzonitrile] showed a mass density of 991.4 ± 1 kg/m3. Molecule CCOC(=O)OCC [diethyl carbonate] has a mass density of 957.8 ± 1 kg/m3.

Same assay, conditions: 313.15 K; 100 kPa; Liquid; Frequency=3 MHz; Sing-around technique in a fixed-path interferometer
Nc1ccccc1 [aniline] gave a speed of sound of 1579.1 ± 1.5 m/s. For O=Cc1ccccc1 [benzaldehyde], the speed of sound was 1402.4 ± 1.6 m/s. N#Cc1ccccc1 [benzonitrile] showed a speed of sound of 1363.6 ± 1.5 m/s. Molecule CCOC(=O)OCC [diethyl carbonate] has a speed of sound of 1116.5 ± 1.5 m/s.

Same assay, conditions: 313.15 K; 100 kPa; Liquid; Vibrating tube method
Nc1ccccc1 [aniline] showed a mass density of 1004.1 ± 1 kg/m3. Work on O=Cc1ccccc1 [benzaldehyde] yielded a mass density of 1027.5 ± 1 kg/m3. Work on N#Cc1ccccc1 [benzonitrile] yielded a mass density of 986.9 ± 1 kg/m3. Molecule CCOC(=O)OCC [diethyl carbonate] has a mass density of 952.1 ± 1 kg/m3.

Same assay, conditions: 318.15 K; 100 kPa; Liquid; Frequency=3 MHz; Sing-around technique in a fixed-path interferometer
Nc1ccccc1 [aniline] gave a speed of sound of 1560 ± 1.5 m/s. Work on O=Cc1ccccc1 [benzaldehyde] yielded a speed of sound of 1384.4 ± 1.6 m/s. In the case of N#Cc1ccccc1 [benzonitrile], the speed of sound is reported as 1346.5 ± 1.5 m/s. With CCOC(=O)OCC [diethyl carbonate] the speed of sound was 1096.5 ± 1.5 m/s.

Same assay, conditions: 318.15 K; 100 kPa; Liquid; Vibrating tube method
With Nc1ccccc1 [aniline] the mass density was 999.7 ± 1 kg/m3. Work on O=Cc1ccccc1 [benzaldehyde] yielded a mass density of 1023 ± 1 kg/m3. Work on N#Cc1ccccc1 [benzonitrile] yielded a mass density of 982.5 ± 1 kg/m3. In the case of CCOC(=O)OCC [diethyl carbonate], the mass density is reported as 946.4 ± 1 kg/m3.

Same assay, conditions: 323.15 K; 100 kPa; Liquid; Frequency=3 MHz; Sing-around technique in a fixed-path interferometer
Molecule Nc1ccccc1 [aniline] has a speed of sound of 1540.9 ± 1.5 m/s. Molecule O=Cc1ccccc1 [benzaldehyde] has a speed of sound of 1366.4 ± 1.6 m/s. N#Cc1ccccc1 [benzonitrile] showed a speed of sound of 1329.5 ± 1.5 m/s. In the case of CCOC(=O)OCC [diethyl carbonate], the speed of sound is reported as 1076.7 ± 1.5 m/s.

Same assay, conditions: 323.15 K; 100 kPa; Liquid; Vibrating tube method
Molecule Nc1ccccc1 [aniline] has a mass density of 995.4 ± 1 kg/m3.

From the NIST ThermoML archive (doi:10.1016/j.jct.2016.08.001)
